# Patent US7897619B2, “Heterocyclic modulators of PKB” (Amgen Inc., priority 2007, dated 2011)
# Molecular target: PKBα (Homo sapiens, UniProt P31749)
# Test: PKB kinase assay (P33-labeled ATP, synthetic peptide substrate, filter plate)
# Assay type: biochemical
# Settings: PKBα enzyme (full length or kinase domain with pleckstrin domain deleted)
# Text: The kinase assay for evaluating PKB activity comprises active PKB enzymes, a PKB specific substrate, and P^33-labeled ATP. Two forms of PKBα enzymes were used, the full length PKBα and a kinase domain of PKBα with pleckstrin domain (amino acids 1-117) deleted. Both PKB enzymes were obtained from Upstate cell signaling solutions (Cat.# 14-276 and 14-341). The PKB substrate used is a synthetic peptide (ARKRERTYSFGHHA (SEQ ID NO: 1)) as described in Obata et al., J. Biol. Chem. 275 (46), 36108-36115 (2000). The phosphorylated substrate was captured by a phosphocellulose membrane filter plate (MILLIPORE) and measured by a Wallac Microbeta liquid scintillation counter (Perkin Elmer). Table 1 provides the IC50 values obtained for each of the examples with respect to PKBα.
# PKBα, sequence (P31749 118-480 limits assumed): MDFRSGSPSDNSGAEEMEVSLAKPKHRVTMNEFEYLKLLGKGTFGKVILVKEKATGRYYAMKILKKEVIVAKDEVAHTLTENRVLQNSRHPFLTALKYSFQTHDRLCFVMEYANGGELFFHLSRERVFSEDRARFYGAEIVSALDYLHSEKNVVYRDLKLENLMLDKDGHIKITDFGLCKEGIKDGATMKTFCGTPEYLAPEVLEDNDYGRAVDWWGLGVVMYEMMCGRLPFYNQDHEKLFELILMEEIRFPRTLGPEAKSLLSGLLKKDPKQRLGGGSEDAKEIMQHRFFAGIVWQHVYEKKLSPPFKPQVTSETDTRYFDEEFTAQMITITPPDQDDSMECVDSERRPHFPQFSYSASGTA
row,Compound,IC50 [nM]
1,"N[C@H](CNc1nnc(-c2ccc3cnccc3c2)o1)Cc1ccc(C(F)(F)F)cc1 [Example 1, N-((S)-2-amino-3-(4-(trifluoromethyl)phenyl)propyl)-5-(isoquinolin-6-yl)-1,3,4-oxadiazol-2-amine]",50 to 1000
2,"Cc1n[nH]c2ccc(-c3nnc(NC[C@@H](N)Cc4cccc(C(F)(F)F)c4)o3)cc12 [Example 2, N-((S)-2-amino-3-(3-(trifluoromethyl)phenyl)propyl)-5-(3-methyl-1H-indazol-5-yl)-1,3,4-oxadiazol-2-amine]",1000 to 10000
3,"N[C@H](CCc1nc(-c2ccc3cnccc3c2)no1)Cc1ccc(C(F)(F)F)cc1 [Example 3, (2R)-4-(3-(Isoquinolin-6-yl)-1,2,4-oxadiazol-5-yl)-1-(4-(trifluoromethyl)phenyl)butan-2-amine]",1000 to 10000
4,"N[C@@H](Cc1ccc(C(F)(F)F)cc1)Cc1nc(-c2ccc3cnccc3c2)no1 [Example 4, (2S)-1-(3-(Isoquinolin-6-yl)-1,2,4-oxadiazol-5-yl)-3-(4-(trifluoromethyl)phenyl)propan-2-amine]",1000 to 10000
5,"N[C@@H](Cc1ccc(C(F)(F)F)cc1)c1nc(-c2ccc3cnccc3c2)no1 [Example 5, (1S)-1-(3-(Isoquinolin-6-yl)-1,2,4-oxadiazol-5-yl)-2-(4-(trifluoromethyl)phenyl)ethanamine]",1000 to 10000
6,"COc1ccc(CNc2ncc(-c3ccc4cnccc4c3)o2)cc1 [Example 6, N-(4-Methoxybenzyl)-5-(isoquinolin-6-yl)oxazol-2-amine]",1000 to 10000
7,"COc1ccc(CNc2ncc(-c3ccccc3)o2)cc1 [Example 7, N-(4-Methoxybenzyl)-5-phenyloxazol-2-amine]",1000 to 10000
8,"COc1ccc(CNc2ncc(-c3ccncc3)o2)cc1 [Example 8, N-(4-Methoxybenzyl)-5-(pyridin-4-yl)oxazol-2-amine]",1000 to 10000
9,"Cc1n[nH]c2ccc(-c3cnc(NC[C@@H](N)Cc4ccc(C(F)(F)F)cc4)o3)cc12 [Example 9, N-((S)-2-Amino-3-(4-(trifluoromethyl)phenyl)propyl)-5-(3-methyl-1H-indazol-5-yl)oxazol-2-amine]",50 to 1000
10,"Cc1n[nH]c2ccc(-c3cnc(NCc4ccccc4)o3)cc12 [Example 10, N-Benzyl-5-(3-methyl-1H-indazol-5-yl)oxazol-2-amine]",1000 to 10000
11,"N[C@H](CNc1cc(-c2ccc3cnccc3c2)no1)Cc1ccc(Cl)cc1 [Example 11, N-((S)-2-Amino-3-(4-chlorophenyl)propyl)-3-(isoquinolin-6-yl)isoxazol-5-amine]",< 50
12,"N[C@H](CNc1cc(-c2ccc3cnccc3c2)no1)Cc1ccc(Br)cc1 [Example 12, N-((S)-2-Amino-3-(4-bromophenyl)propyl)-3-(isoquinolin-6-yl)isoxazol-5-amine]",< 50
13,"N[C@H](CNc1cc(-c2ccc3cnccc3c2)no1)Cc1cccc(C(F)(F)F)c1 [Example 13, N-((S)-2-Amino-3-(3-(trifluoromethyl)phenyl)propyl)-3-(isoquinolin-6-yl)isoxazol-5-amine]",< 50
14,"N[C@H](CNc1cc(-c2ccc3cnccc3c2)no1)Cc1ccc(C(F)(F)F)cc1 [Example 14, N-((S)-2-Amino-3-(4-(trifluoromethyl)phenyl)propyl)-3-(isoquinolin-6-yl)isoxazol-5-amine]",< 50
15,"N[C@H](CNc1cc(-c2ccc3cnccc3c2)no1)Cc1ccccc1 [Example 15, N-((S)-2-Amino-3-phenylpropyl)-3-(isoquinolin-6-yl)isoxazol-5-amine]",50 to 1000
16,"N[C@H](CNc1cc(-c2ccc3cnccc3c2)no1)Cc1cccc(Cl)c1 [Example 16, N-((S)-2-Amino-3-(3-chlorophenyl)propyl)-3-(isoquinolin-6-yl)isoxazol-5-amine]",< 50
17,"Cc1c(-c2ccc3cnccc3c2)noc1NC[C@@H](N)Cc1ccccc1 [Example 17, N-((S)-2-Amino-3-phenylpropyl)-3-(isoquinolin-6-yl)-4-methylisoxazol-5-amine]",1000 to 10000
18,"N[C@H](CNc1cc(-c2ccc3cnccc3c2)no1)Cc1ccccc1Cl [Example 18, N-((S)-2-Amino-3-(2-chlorophenyl)propyl)-3-(isoquinolin-6-yl)isoxazol-5-amine]",50 to 1000
19,"N[C@H](CNc1cc(-c2ccc3cnccc3c2)no1)Cc1ccc2ccccc2c1 [Example 19, N-((S)-2-Amino-3-(naphthalen-2-yl)propyl)-3-(isoquinolin-6-yl)isoxazol-5-amine]",50 to 1000

# Second part, the compound after the results:
row,IC50 [nM],Compound
1,50 to 1000,"N[C@H](CNc1cc(-c2ccc3cnccc3c2)on1)Cc1ccc(C(F)(F)F)cc1 [Example 20, N-((S)-2-Amino-3-(4-(trifluoromethyl)phenyl)propyl)-5-(isoquinolin-6-yl)isoxazol-3-amine]"
2,50 to 1000,"N[C@H](CNc1cc(-c2ccc3cnccc3c2)on1)Cc1cccc(Cl)c1 [Example 21, N-((S)-2-Amino-3-(3-chlorophenyl)propyl)-5-(isoquinolin-6-yl)isoxazol-3-amine]"
3,50 to 1000,"N[C@H](CNc1cc(-c2ccc3cnccc3c2)on1)Cc1ccc(Cl)cc1 [Example 22, N-((S)-2-Amino-3-(4-chlorophenyl)propyl)-5-(isoquinolin-6-yl)isoxazol-3-amine]"
4,1000 to 10000,"N[C@H](CCc1cc(-c2ccc3cnccc3c2)no1)Cc1ccccc1 [Example 23, (2R)-4-(3-(isoquinolin-6-yl)isoxazol-5-yl)-1-phenylbutan-2-amine]"
5,< 50,"N[C@H](CCc1cc(-c2ccc3cnccc3c2)no1)Cc1ccc(C(F)(F)F)cc1 [Example 24, (2R)-4-(3-(Isoquinolin-6-yl)isoxazol-5-yl)-1-(4-(trifluoromethyl)phenyl)butan-2-amine]"
6,50 to 1000,"N[C@H](CCc1cc(-c2ccc3cnccc3c2)no1)Cc1ccc(Cl)cc1 [Example 25, (2R)-1-(4-Chlorophenyl)-4-(3-(isoquinolin-6-yl)isoxazol-5-yl)butan-2-amine]"
7,50 to 1000,"N[C@H](CCc1cc(-c2ccc3cnccc3c2)no1)Cc1cccc(Cl)c1 [Example 26, (2R)-1-(3-chlorophenyl)-4-(3-(isoquinolin-6-yl)isoxazol-5-yl)butan-2-amine]"
8,1000 to 10000,"N[C@H](CCc1cc(-c2ccc3cnccc3c2)no1)Cc1ccccc1Cl [Example 27, (2R)-1-(2-chlorophenyl)-4-(3-(isoquinolin-6-yl)isoxazol-5-yl)butan-2-amine]"
9,50 to 1000,"N[C@@H](CCc1cc(-c2ccc3cnccc3c2)no1)Cc1ccc(C(F)(F)F)cc1 [Example 28, (2S)-4-(3-(Isoquinolin-6-yl)isoxazol-5-yl)-1-(4-(trifluoromethyl)phenyl)butan-2-amine]"
10,50 to 1000,"N[C@H](CCc1cc(-c2ccc3cnccc3c2)no1)Cc1cccc(C(F)(F)F)c1 [Example 29, (2R)-4-(3-(Isoquinolin-6-yl)isoxazol-5-yl)-1-(3-(trifluoromethyl)phenyl)butan-2-amine]"
11,50 to 1000,"N[C@H](CCc1cc(-c2ccc3cnccc3c2)no1)Cc1ccc(Cl)cc1Cl [Example 30, (2R)-1-(2,4-Dichlorophenyl)-4-(3-(isoquinolin-6-yl)isoxazol-5-yl)butan-2-amine]"
12,1000 to 10000,"N[C@H](CNc1onc(-c2ccc3cnccc3c2)c1Cc1ccccc1)Cc1ccccc1 [Example 31, N-((S)-2-amino-3-phenylpropyl)-4-benzyl-3-(isoquinolin-6-yl)isoxazol-5-amine]"
